{"source": "patent US20230365530A1", "about": "“QUINAZOLINE-2,4-DIAMINE DERIVATIVE AND PHARMACEUTICAL COMPOSITION FOR PREVENTING OR TREATING CANCER COMPRISING SAME AS ACTIVE INGREDIENT” (THE ASEAN FOUNDATION, priority 2020, published 2023)", "key": {"MC38 syngeneic model": {"system": "MC38 syngeneic model", "assay": "Combination therapy with anti CTLA-4 in MC38 syngeneic model", "type": "in vivo, C57BL/6 mouse", "protocol": "In order to confirm the synergistic efficacy of the combination therapy of the compounds of Examples of the present invention and a cancer immunotherapy agent (anti CTLA-4) in a syngeneic animal model transplanted with a mouse colorectal cancer cell line, a cancer cell growth inhibition experiment was conducted in the MC38 syngeneic model. Specific experimental methods are as follows. The frozen MC38 cell line was thawed and cultured in DMEM (Dulbecco's modified Eagle's medium) supplemented with 10% FBS and 1% penicillin-streptomycin in a 37° C., 5% CO2 incubator. The thawed cells were cultured for more than one week, and subcultured at intervals of 2-3 days, confirming that there was no infection with bacteria, yeast (cell image) and mycoplasma. The cells were stained with trypan blue, and those having a survival rate of 90% or more were used for transplantation. The cells were suspended using trypsin-EDTA and then suspended in cold PBS. MC38 cells (1×10^5 cells/150 μl) were subcutaneously transplanted under the right scapula of the C57BL/6 mouse, which had been acclimated for about 1 week. From the 3rd day after the transplantation, tumor formation and growth were observed, and the volume of the tumor was calculated according to the following equation using the measured tumor length. [Tumor volume=(a^2b)/2, a: short diameter, b: long diameter] When the average tumor volume of all mice on the day after tumor transplantation was 80±20 mm^3, the mice were grouped by paired-matching. Drugs were dissolved in 40% polyethylene glycol 400+16% 2-hydroxypropyl-b-cyclodextrin. The compounds of Examples of the present invention were intraperitoneally administered at 30 mg/kg once a day for 4 weeks, and the CTLA-4 antibody (BioX Cell, cat. BE1031) was intraperitoneally administered at 10 mg/kg three times a week. A tumor growth curve was prepared using the tumor volume from the start date of drug administration to the end of the test. The results are shown in FIG. 2, and the tumor growth inhibition rates of the compounds of Examples to the control group are shown in Table 5."}, "[1]": {"system": "pancreatic cancer cell line Miapaca 2", "assay": "Cancer cell growth inhibition test, CellTiter-glo", "type": "cell-based", "details": "Homo sapiens, MIA PaCa-2, Miapaca 2 cells, 72 hours", "protocol": "In order to confirm the effect of reducing cell viability by inhibiting EHMT2 by the compounds of Examples in cells, the effect of inhibiting cancer cell growth was analyzed using CellTiter-glo™ analysis (Promega, cat. G7573) method. Specifically, the amount of ATP in living cells was measured and IC50 values were calculated using software to compare the inhibitory effect of the compounds of Examples on cell viability. First, the pancreatic cancer cell line Miapaca 2 was placed in a 96-well cell culture plate at the density of 1×10^3 cells/well and cultured overnight, and then each well of the plate was treated with 1 nM to 100 μM of the compounds of Examples 1 to 89 at each concentration for 72 hours (The final concentration of DMSO in each well was 0.5% or less). CellTiter-glo 2.0 reagent was mixed with a medium at 20% of the amount of the medium, reacted at room temperature for 10 minutes, and then 80 μL of the mixture was transferred to each well of a 96-well plate, followed by measuring the degree of luminescence."}, "Miapaca2 xenograft model": {"system": "Miapaca2 xenograft model", "assay": "Tumor growth inhibition in Miapaca2 xenograft model", "type": "in vivo, Athymic nude mouse", "details": "20 mg/kg intraperitoneally once a day for 4 weeks", "protocol": "In order to confirm the tumor growth inhibitory effect of the compounds of Examples according to the present invention in a xenograft model in which the human pancreatic cancer cell line was transplanted, a cancer growth inhibition experiment was conducted in the Miapaca2 xenograft model.\nSpecific experimental methods are as follows. The frozen Miapaca-2 cell line was thawed and cultured in DMEM (Dulbecco's modified Eagle's medium) supplemented with 10% FBS and 1% penicillin-streptomycin in a 37° C., 5% CO2 incubator. The thawed cells were cultured for more than one week, and subcultured at intervals of 2˜3 days, confirming that there was no infection with bacteria, yeast (cell image) and mycoplasma. The cells were stained with trypan blue, and those having a survival rate of 90% or more were used for transplantation. The cells were suspended using trypsin-EDTA and then suspended in a cold solution (PBS:matrigel=6:4). Miapaca-2 cells (4×10^6 cells/[…]) were subcutaneously transplanted under the right scapula of the Athymic nude mouse, which had been acclimated for about 1 week. From the 3rd day after the transplantation, tumor formation and growth were observed, and the volume of the tumor was calculated according to the following equation using the measured tumor length.\n[Tumor volume=(a^2b)/2, a: short diameter, b: long diameter]\nWhen the average tumor volume of all mice on the day after tumor transplantation was 80±20 mm^3, the mice were grouped by paired-matching. Drugs were dissolved in 40% polyethylene glycol 400+16% 2-hydroxypropyl-b-cyclodextrin. The drugs were intraperitoneally administered at 20 mg/kg once a day for 4 weeks. A tumor growth curve was prepared using the tumor volume from the start date of drug administration to the end of the test. The results are shown in FIG. 1, and the tumor growth inhibition rates of the compounds of Examples to the control group are shown in Table 4."}, "[2]": {"target": "EHMT2 (Euchromatic histone-lysine N-methyltransferase 2) (Homo sapiens (Human), UniProt Q96KQ7)", "sequence (Q96KQ7 whole entry)": "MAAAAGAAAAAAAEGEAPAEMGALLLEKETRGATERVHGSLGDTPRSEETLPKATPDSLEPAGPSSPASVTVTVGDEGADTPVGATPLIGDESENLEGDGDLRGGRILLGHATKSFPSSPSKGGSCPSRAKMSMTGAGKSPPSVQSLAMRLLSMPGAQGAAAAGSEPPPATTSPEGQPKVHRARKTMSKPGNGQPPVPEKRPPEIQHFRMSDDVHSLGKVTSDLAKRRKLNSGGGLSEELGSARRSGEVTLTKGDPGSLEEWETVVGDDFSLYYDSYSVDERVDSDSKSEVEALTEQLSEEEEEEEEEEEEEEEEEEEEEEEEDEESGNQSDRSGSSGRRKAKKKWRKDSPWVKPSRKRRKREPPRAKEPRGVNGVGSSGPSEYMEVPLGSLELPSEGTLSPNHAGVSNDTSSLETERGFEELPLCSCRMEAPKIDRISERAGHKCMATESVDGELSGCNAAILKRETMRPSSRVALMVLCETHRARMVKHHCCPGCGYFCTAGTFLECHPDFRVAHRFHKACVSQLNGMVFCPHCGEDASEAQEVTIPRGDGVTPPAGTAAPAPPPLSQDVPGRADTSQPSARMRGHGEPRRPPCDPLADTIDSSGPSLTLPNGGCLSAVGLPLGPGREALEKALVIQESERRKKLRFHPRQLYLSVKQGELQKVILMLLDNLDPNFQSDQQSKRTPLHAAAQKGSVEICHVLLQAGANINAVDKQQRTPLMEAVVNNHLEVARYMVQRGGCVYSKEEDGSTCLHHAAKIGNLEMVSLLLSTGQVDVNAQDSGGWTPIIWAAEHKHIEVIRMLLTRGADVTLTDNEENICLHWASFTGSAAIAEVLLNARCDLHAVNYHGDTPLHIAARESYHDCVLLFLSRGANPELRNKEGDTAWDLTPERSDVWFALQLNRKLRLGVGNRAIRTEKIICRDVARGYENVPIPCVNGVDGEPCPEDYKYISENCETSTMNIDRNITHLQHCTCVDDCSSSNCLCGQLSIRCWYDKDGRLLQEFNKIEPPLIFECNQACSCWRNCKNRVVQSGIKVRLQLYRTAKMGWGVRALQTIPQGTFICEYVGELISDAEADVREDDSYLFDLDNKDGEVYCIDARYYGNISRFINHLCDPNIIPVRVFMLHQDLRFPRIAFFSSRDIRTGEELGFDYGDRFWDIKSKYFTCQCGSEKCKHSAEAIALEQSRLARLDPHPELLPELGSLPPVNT", "assay": "EHMT2 enzyme inhibition, LANCE TR-FRET", "type": "biochemical", "details": "histone H3 peptide, 1 hour at room temperature", "method_in_brief": "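EHMT2/G9a enzyme preincubated 10 min with SAM and compounds (1 nM–100 μM, 4× stocks), then reacted 1 hour at room temperature with biotinylated histone H3 peptide (2 μM, 4× stock). H3K9 methylation detected by Eu-antibody/ULight-streptavidin TR-FRET at 665 nm; background-subtracted activity expressed relative to 4% DMSO vehicle; IC50 calculated.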"}}, "data": [{"smiles": "COc1cc2c(NC3CCN(C(C)C)CC3)nc(N3CCCCC3)nc2cc1C#CCCN(C)C", "note": "[Example 3, 7-(4-(dimethylamino)-1-butyne-1-yl)-N-(1-isopropylpiperidine-4-yl)-6-methoxy-2-(piperidine-1-yl)quinazoline-4-amine]", "values": [{"measurement": "Effect of combination with cancer immunotherapy agent (in words)", "setting": "MC38 syngeneic model; combined with anti CTLA-4", "value": "enhancing the anticancer activity of a cancer immunotherapy agent"}, {"measurement": "Tumor growth inhibition rate (TGI)", "setting": "MC38 syngeneic model; compound alone, 30 mg/kg intraperitoneally once a day for 4 weeks", "value": 3.00, "unit": "%"}, {"measurement": "Anticancer activity alone (in words)", "setting": "MC38 syngeneic model; treated alone", "value": "inhibits tumor growth even when treated alone"}, {"measurement": "IC50", "setting": "[1]", "value": 655, "unit": "nM"}, {"measurement": "Tumor growth inhibition rate (TGI)", "setting": "Miapaca2 xenograft model", "value": 42.47}, {"measurement": "IC50", "setting": "[2]", "value": "< 100", "unit": "nM"}]}, {"smiles": "COc1cc2c(NC3CCN(C4CC4)CC3)nc(N3CCCN(C)CC3)nc2cc1C#CCCN1CCCC1", "note": "[Example 56, N-(1-cyclopropylpiperidine-4-yl)-6-methoxy-2-(4-methyl-1,4-diazepane-1-yl)-7-(4-(pyrrolidine-1-yl)-1-butyne-1-yl)quinazoline-4-amine]", "values": [{"measurement": "IC50", "setting": "[1]", "value": 192, "unit": "nM"}, {"measurement": "IC50", "setting": "[2]", "value": "< 100", "unit": "nM"}]}, {"smiles": "COc1cc2c(NCCN(C)C)nc(N3CCCC3)nc2cc1C#CCCN1CCCC1", "note": "[Example 52, N1-(6-methoxy-2-(pyrrolidine-1-yl)-7-(4-(pyrrolidine-1-yl)-1-butyne-1-yl)quinazoline-4-yl)-N2,N2-dimethylethane-1,2-diamine]", "values": [{"measurement": "IC50", "setting": "[1]", "value": 464, "unit": "nM"}, {"measurement": "Tumor growth inhibition rate (TGI)", "setting": "Miapaca2 xenograft model", "value": 26.39}, {"measurement": "IC50", "setting": "[2]", "value": "< 100", "unit": "nM"}]}, {"smiles": "COc1cc2c(NC3CCN(C(C)C)CC3)nc(N(C)C)nc2cc1C#CCCN(C)C", "note": "[Example 14]", "values": [{"measurement": "IC50", "setting": "[1]", "value": 338, "unit": "nM"}, {"measurement": "IC50", "setting": "[2]", "value": "< 100", "unit": "nM"}]}, {"smiles": "COc1cc2c(NC3CCN(C4CC4)CC3)nc(N(C)C)nc2cc1C#CCCN1CCCC1", "note": "[Example 55, N4-(1-cyclopropylpiperidine-4-yl)-6-methoxy-N2,N2-dimethyl-7-(4-(pyrrolidine-1-yl)-1-butyne-1-yl)quinazoline-2,4-diamine]", "values": [{"measurement": "IC50", "setting": "[1]", "value": 307, "unit": "nM"}, {"measurement": "Tumor growth inhibition rate (TGI)", "setting": "Miapaca2 xenograft model", "value": 31.80}, {"measurement": "IC50", "setting": "[2]", "value": "< 100", "unit": "nM"}]}, {"smiles": "COc1cc2c(NC3CCN(C(C)C)CC3)nc(N(C)C)nc2cc1C#CCCN1CCCC1", "note": "[Example 49, N4-(1-isopropylpiperidine-4-yl)-6-methoxy-N2,N2-dimethyl-7-(4-(pyrrolidine-1-yl)-1-butyne-1-yl)quinazoline-2,4-diamine]", "values": [{"measurement": "IC50", "setting": "[1]", "value": 333, "unit": "nM"}, {"measurement": "IC50", "setting": "[2]", "value": "< 100", "unit": "nM"}]}, {"smiles": "COc1cc2c(NC3CCN(C(C)C)CC3)nc(N3CCCC3)nc2cc1C#CCCN1CCCC1", "note": "[Example 42, N-(1-isopropylpiperidine-4-yl)-6-methoxy-2-(pyrrolidine-1-yl)-7-(4-(pyrrolidine-1-yl)-1-butyne-1-yl)quinazoline-4-amine]", "values": [{"measurement": "IC50", "setting": "[1]", "value": 304, "unit": "nM"}, {"measurement": "IC50", "setting": "[2]", "value": "< 100", "unit": "nM"}]}, {"smiles": "COc1cc2c(NC3CCN(C(C)C)CC3)nc(N3CC[C@@H](F)C3)nc2cc1C#CCCN1CCCC1", "note": "[Example 60, (R)-2-(3-fluoropyrrolidine-1-yl)-N-(1-isopropylpiperidine-4-yl)-6-methoxy-7-(4-(pyrrolidine-1-yl)-1-butyne-1-yl)quinazoline-4-amine]", "values": [{"measurement": "IC50", "setting": "[1]", "value": 669, "unit": "nM"}, {"measurement": "IC50", "setting": "[2]", "value": "< 100", "unit": "nM"}]}]}
